The supplement of paper PMC10307832

Key:
Assay in all cases: relative viability (nuclei count vs DMSO), 5 days (fraction); higher = more cells survive
[1] = compound: CC1=C(N=C(N=C1N)[C@H](CC(=O)N)NC[C@@H](C(=O)N)N)C(=O)N[C@@H]([C@H](C2=CN=CN2)OC3C(C(C(C(O3)CO)O)O)OC4C(C(C(C(O4)CO)O)OC(=O)N)O)C(=O)N[C@H](C)[C@H]([C@H](C)C(=O)N[C@@H]([C@@H](C)O)C(=O)NCCC5=NC(=CS5)C6=NC(=CS6)C(=O)NCCC[S+](C)C)O [Bleomycin] + CC(=O)Nc1cccc(-n2c(=O)n(C3CC3)c(=O)c3c(Nc4ccc(I)cc4F)n(C)c(=O)c(C)c32)c1 [Trametinib] (partner 0.02 µM); settings: main component drawn
Outline: (§1)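 Dosing by pin tool came one day after lung cancer cell lines were seeded in 1536-well plates, using either one drug or a fixed anchor-drug dose plus five library-drug doses (not always all listed) in √10 steps. After 5 days, nuclei were counted on 4× images. Relative viability is treated-well nuclei count divided by vehicle-well nuclei count, and values are medians of duplicate plates.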

[2] = compound: CC1=C(N=C(N=C1N)[C@H](CC(=O)N)NC[C@@H](C(=O)N)N)C(=O)N[C@@H]([C@H](C2=CN=CN2)OC3C(C(C(C(O3)CO)O)O)OC4C(C(C(C(O4)CO)O)OC(=O)N)O)C(=O)N[C@H](C)[C@H]([C@H](C)C(=O)N[C@@H]([C@@H](C)O)C(=O)NCCC5=NC(=CS5)C6=NC(=CS6)C(=O)NCCC[S+](C)C)O [Bleomycin] + CCNC(=O)c1noc(-c2cc(C(C)C)c(O)cc2O)c1-c1ccc(CN2CCOCC2)cc1 [Luminespib] (partner 0.01 µM); settings: main component drawn
Outline: as §1

[3] = compound: COc1cc([C@@H]2c3cc4c(cc3[C@@H](O[C@@H]3O[C@@H]5CO[C@@H](C)O[C@H]5[C@H](O)[C@H]3O)[C@H]3COC(=O)[C@H]23)OCO4)cc(OC)c1O [Etoposide] + CS(=O)(=O)N1CCN(Cc2cc3nc(-c4cccc5[nH]ncc45)nc(N4CCOCC4)c3s2)CC1 [Pictilisib] (partner 1 µM)
Outline: as §1

[4] = compound: COc1cc([C@@H]2c3cc4c(cc3[C@@H](O[C@@H]3O[C@@H]5CO[C@@H](C)O[C@H]5[C@H](O)[C@H]3O)[C@H]3COC(=O)[C@H]23)OCO4)cc(OC)c1O [Etoposide] + O=C(c1cc(Cc2n[nH]c(=O)c3ccccc23)ccc1F)N1CCN(C(=O)C2CC2)CC1 [Olaparib] (partner 8 µM)
Outline: as §1

## NCI-H838
[1]; first compound 0.01 µM
  relative viability: 0.432
[1]; first compound 0.03162 µM
  relative viability: 0.246
[1]; first compound 0.1 µM
  relative viability: 0.186
[1]; first compound 0.3162 µM
  relative viability: 0.154
[1]; first compound 1 µM
  relative viability: 0.118
[2]; first compound 0.01 µM
  relative viability: 0.269
[2]; first compound 0.03162 µM
  relative viability: 0.176
[2]; first compound 0.1 µM
  relative viability: 0.142
[2]; first compound 0.3162 µM
  relative viability: 0.119
[2]; first compound 1 µM
  relative viability: 0.162
[3]; first compound 0.01 µM
  relative viability: 0.461
[3]; first compound 0.03162 µM
  relative viability: 0.544
[3]; first compound 0.1 µM
  relative viability: 0.284
[3]; first compound 0.3162 µM
  relative viability: 0.329
[3]; first compound 1 µM
  relative viability: 0.186
[4]; first compound 0.01 µM
  relative viability: 0.757
[4]; first compound 0.03162 µM
  relative viability: 0.782
[4]; first compound 0.1 µM
  relative viability: 0.64
[4]; first compound 0.3162 µM
  relative viability: 0.31
[4]; first compound 1 µM
  relative viability: 0.2

## NCI-H1355
[1]; first compound 0.01 µM
  relative viability: 0.415
[1]; first compound 0.03162 µM
  relative viability: 0.385
[1]; first compound 0.1 µM
  relative viability: 0.482
[1]; first compound 0.3162 µM
  relative viability: 0.317
[1]; first compound 1 µM
  relative viability: 0.198
[2]; first compound 0.01 µM
  relative viability: 0.672
[2]; first compound 0.03162 µM
  relative viability: 0.606
[2]; first compound 0.1 µM
  relative viability: 0.698
[2]; first compound 0.3162 µM
  relative viability: 0.304
[2]; first compound 1 µM
  relative viability: 0.289
[3]; first compound 0.01 µM
  relative viability: 0.492
[3]; first compound 0.03162 µM
  relative viability: 0.552
[3]; first compound 0.1 µM
  relative viability: 0.276
[3]; first compound 0.3162 µM
  relative viability: 0.284
[3]; first compound 1 µM
  relative viability: 0.144
[4]; first compound 0.01 µM
  relative viability: 0.682
[4]; first compound 0.03162 µM
  relative viability: 0.769
[4]; first compound 0.1 µM
  relative viability: 0.574
[4]; first compound 0.3162 µM
  relative viability: 0.332
[4]; first compound 1 µM
  relative viability: 0.221

## NCI-H1395
[1]; first compound 0.01 µM
  relative viability: 0.753
[1]; first compound 0.03162 µM
  relative viability: 0.822
[1]; first compound 0.1 µM
  relative viability: 0.714
[1]; first compound 0.3162 µM
  relative viability: 0.482
[1]; first compound 1 µM
  relative viability: 0.404
[2]; first compound 0.01 µM
  relative viability: 0.648
[2]; first compound 0.03162 µM
  relative viability: 0.648
[2]; first compound 0.1 µM
  relative viability: 0.54
[2]; first compound 0.3162 µM
  relative viability: 0.397
[2]; first compound 1 µM
  relative viability: 0.47
[3]; first compound 0.01 µM
  relative viability: 0.618
[3]; first compound 0.03162 µM
  relative viability: 0.665
[3]; first compound 0.1 µM
  relative viability: 0.591
[3]; first compound 0.3162 µM
  relative viability: 0.551
[3]; first compound 1 µM
  relative viability: 0.446
[4]; first compound 0.01 µM
  relative viability: 0.444
[4]; first compound 0.03162 µM
  relative viability: 0.453
[4]; first compound 0.1 µM
  relative viability: 0.458
[4]; first compound 0.3162 µM
  relative viability: 0.479
[4]; first compound 1 µM
  relative viability: 0.397

## NCI-H1437
[1]; first compound 0.01 µM
  relative viability: 0.475
[1]; first compound 0.03162 µM
  relative viability: 0.411
[1]; first compound 0.1 µM
  relative viability: 0.678
[1]; first compound 0.3162 µM
  relative viability: 0.439
[1]; first compound 1 µM
  relative viability: 0.276
[2]; first compound 0.01 µM
  relative viability: 1.01
[2]; first compound 0.03162 µM
  relative viability: 0.999
[2]; first compound 0.1 µM
  relative viability: 1
[2]; first compound 0.3162 µM
  relative viability: 0.63
[2]; first compound 1 µM
  relative viability: 0.585
[3]; first compound 0.01 µM
  relative viability: 0.588
[3]; first compound 0.03162 µM
  relative viability: 0.504
[3]; first compound 0.1 µM
  relative viability: 0.21
[3]; first compound 0.3162 µM
  relative viability: 0.209
[3]; first compound 1 µM
  relative viability: 0.122
[4]; first compound 0.01 µM
  relative viability: 0.597
[4]; first compound 0.03162 µM
  relative viability: 0.646
[4]; first compound 0.1 µM
  relative viability: 0.56
[4]; first compound 0.3162 µM
  relative viability: 0.394
[4]; first compound 1 µM
  relative viability: 0.323

## NCI-H1650
[1]; first compound 0.01 µM
  relative viability: 0.325
[1]; first compound 0.03162 µM
  relative viability: 0.257
[1]; first compound 0.1 µM
  relative viability: 0.244
[1]; first compound 0.3162 µM
  relative viability: 0.138
[1]; first compound 1 µM
  relative viability: 0.135
[2]; first compound 0.01 µM
  relative viability: 0.172
[2]; first compound 0.03162 µM
  relative viability: 0.213
[2]; first compound 0.1 µM
  relative viability: 0.213
[2]; first compound 0.3162 µM
  relative viability: 0.18
[2]; first compound 1 µM
  relative viability: 0.188
[3]; first compound 0.01 µM
  relative viability: 0.506
[3]; first compound 0.03162 µM
  relative viability: 0.572
[3]; first compound 0.1 µM
  relative viability: 0.378
[3]; first compound 0.3162 µM
  relative viability: 0.196
[3]; first compound 1 µM
  relative viability: 0.139
[4]; first compound 0.01 µM
  relative viability: 0.797
[4]; first compound 0.03162 µM
  relative viability: 0.652
[4]; first compound 0.1 µM
  relative viability: 0.723
[4]; first compound 0.3162 µM
  relative viability: 0.341
[4]; first compound 1 µM
  relative viability: 0.198

## NCI-H1651
[1]; first compound 0.01 µM
  relative viability: 0.818
[1]; first compound 0.03162 µM
  relative viability: 0.712
[1]; first compound 0.1 µM
  relative viability: 0.714
[1]; first compound 0.3162 µM
  relative viability: 0.368
[1]; first compound 1 µM
  relative viability: 0.223
[2]; first compound 0.01 µM
  relative viability: 0.538
[2]; first compound 0.03162 µM
  relative viability: 0.574
[2]; first compound 0.1 µM
  relative viability: 0.402
[2]; first compound 0.3162 µM
  relative viability: 0.257
[2]; first compound 1 µM
  relative viability: 0.205
[3]; first compound 0.01 µM
  relative viability: 0.49
[3]; first compound 0.03162 µM
  relative viability: 0.681
[3]; first compound 0.1 µM
  relative viability: 0.436
[3]; first compound 0.3162 µM
  relative viability: 0.178
[3]; first compound 1 µM
  relative viability: 0.0908
[4]; first compound 0.01 µM
  relative viability: 0.175
[4]; first compound 0.03162 µM
  relative viability: 0.188
[4]; first compound 0.1 µM
  relative viability: 0.202
[4]; first compound 0.3162 µM
  relative viability: 0.138
[4]; first compound 1 µM
  relative viability: 0.0965

## NCI-H1666
[1]; first compound 0.01 µM
  relative viability: 0.717
[1]; first compound 0.03162 µM
  relative viability: 0.783
[1]; first compound 0.1 µM
  relative viability: 0.76
[1]; first compound 0.3162 µM
  relative viability: 0.533
[1]; first compound 1 µM
  relative viability: 0.581
[2]; first compound 0.01 µM
  relative viability: 0.733
[2]; first compound 0.03162 µM
  relative viability: 0.657
[2]; first compound 0.1 µM
  relative viability: 0.583
[2]; first compound 0.3162 µM
  relative viability: 0.395
[2]; first compound 1 µM
  relative viability: 0.436
[3]; first compound 0.01 µM
  relative viability: 0.469
[3]; first compound 0.03162 µM
  relative viability: 0.233
[3]; first compound 0.1 µM
  relative viability: 0.325
[3]; first compound 0.3162 µM
  relative viability: 0.21
[3]; first compound 1 µM
  relative viability: 0.205
[4]; first compound 0.01 µM
  relative viability: 0.702
[4]; first compound 0.03162 µM
  relative viability: 0.642
[4]; first compound 0.1 µM
  relative viability: 0.758
[4]; first compound 0.3162 µM
  relative viability: 0.529
[4]; first compound 1 µM
  relative viability: 0.497
